{"source": "paper PMC10447463", "about": "“Data-mining unveils structure–property–activity correlation of viral infectivity enhancing self-assembling peptides” (Nature Communications, 2023)", "key": {"[1]": {"type": "physicochemical", "design": "key to Fibril / Fibril Formation / TEM 2cat / Fibril: 1 = fibrils present; 0 non-fibrillar structures", "conditions": "for Fibril / Fibril Formation: TEM, 1 mg/mL, uranyl acetate stain, qualitative"}, "[2]": {"assay": "Zeta-potential measurement", "type": "physicochemical", "conditions": "for Zeta-pot. / mV: zeta potential of peptide, Fig S15 source data; for Zeta pot. / mV: 1 mg/mL in PBS pH 7.4 from 10 mg/mL DMSO stock, 1 d RT, 60 µL diluted in 600 µL 1 mM KCl, Zetasizer Nano ZS, Smoluchowski, mean of triplicate", "method_in_brief": "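Samples: 1 mg/mL in PBS pH 7.4 (from DMSO), 1 d at RT, then diluted in 1 mM KCl immediately before measurement. Triplicates, two independent runs averaged.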"}, "[3]": {"test_system": "HIV-1 infection of TZM-bl cells", "assay": "HIV-1 infectivity enhancement assay, β-galactosidase luminescence", "type": "cell-based", "conditions": "for Log10 Infection Rel EF-C: log10 of infection relative to EF-C; for Inf. rel. EF-C: n-fold infection vs virus only, relative to that of EF-C, 1.3 µM peptide; for Absolute Infectivity / RLU /s (Feb2021): figures match the 1.3 µM column; for Log10 of Rel to EFC (Feb2021): log10 of infectivity relative to EF-C; for Rel-to EFC (Feb-2021): n-fold infectivity relative to EF-C; for Rel-to EFC / n-fold to virus: Fig S8 panels B, D; for Rel-to EFC: infectivity enhancement relative to EF-C; for Log10 Inf. rel. to EF-C: log10 of HIV-1 infection of TZM-bl cells relative to EF-C, Fig S15 source data, asymmetric std dev errors"}, "[4]": {"assay": "Turbidity, derived count rate of scattered light", "type": "physicochemical", "conditions": "for Count Rate / kcps: derived count rate of scattered light at 633 nm, 173°, from zeta-potential measurement, 0.1 mg/mL in 1 mM KCl after 1 d at 1 mg/mL in PBS, turbidity / microscopic aggregation, mean of triplicate; for Log Count Rate: log of derived count rate; for Count Rate: turbidity; for Count Rate / Zeta Count Rate / kcps: derived count rate of scattered light; for Zeta Count Rate Category: category 1 / 0, no key given", "method_in_brief": "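One-day room-temperature aggregation at 1 mg/mL in PBS (pH 7.4) preceded measurement; samples then went into 1 mM KCl. Triplicates per sample, two independent experiments averaged.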"}, "[5]": {"conditions": "Feb2021, infectivity relative to virus only"}, "[6]": {"conditions": "infectivity n-fold relative to virus alone"}, "[7]": {"conditions": "infectivity class (low / medium / high) of each library peptide, main list in c1-c6, same classes repeated in sub-lists of sequences containing the hydrophobicity/charge patterns P+,H0,P+,H0,P0,H0,P0, P+,H0,P0,H0,P0,H0,P0, P+,H0,P0,H0"}, "[8]": {"conditions": "infectivity class (low / medium / high) of the peptide in the sequence-pattern analysis, Fig. S22-A4, class limits not given"}, "[9]": {"conditions": "Fig S8 panels A, C, asymmetric log errors"}, "[10]": {"conditions": "Feb2021 run, infectivity n-fold relative to virus alone"}, "[11]": {"conditions": "mean, std deviation in separate column"}}, "note": "Read-outs that look alike come from different tables or passages of the source.", "data": [{"substance": "VHDCVNITIK [reference compound]", "values": [{"measurement": "Fibril / Fibril Formation", "setting": "[1]", "value": 1}, {"measurement": "Zeta-Potential / mV", "setting": "[2]; mean, Figure 7B", "value": 9.27, "unit": "mV"}, {"measurement": "Log10 Infection Rel EF-C", "setting": "[3]; Figure 7B", "value": -0.27}, {"measurement": "Inf. rel. EF-C", "setting": "[3]", "value": 0.53}, {"measurement": "Abs Infection at 0.26µM", "setting": "[3]; peptide 0.26 µM, mean of n = 3, Figure 7A", "value": 46666.66667}, {"measurement": "Abs Infection at 1.3 µM", "setting": "[3]; peptide 1.3 µM, mean of n = 3, Figure 7A", "value": 86910}, {"measurement": "Abs Infection at 6.5 µM", "setting": "[3]; peptide 6.5 µM, mean of n = 3, Figure 7A", "value": 136243.3333}, {"measurement": "Count Rate / kcps", "setting": "[4]", "value": 12542, "unit": "kcps"}]}, {"substance": "HHHHKIKIQINMYYYY [TM16]", "values": [{"measurement": "TEM: 1= fibrils, 0= aggregates (micelle), 0.5 = aggregates and fibrils, -1 = nothing obersved, STD prep", "setting": "[1]", "value": 1}, {"measurement": "Zeta Pot. / mV", "setting": "[2]", "value": 7.807, "unit": "mV"}, {"measurement": "Zeta category ( +1 = if > 4 mV;-1 = if < -4 mV; 0 = -4mV to 4 mV)", "setting": "[2]", "value": "1 (+1 = if > 4 mV)"}, {"measurement": "Zeta-pot. / mV", "setting": "[2]", "value": 7.807, "unit": "mV"}, {"measurement": "Absolute Infectivity / RLU /s (Feb2021)", "setting": "[3]; Feb2021", "value": 22408.88889, "unit": "RLU /s"}, {"measurement": "n-fold to virus (Feb2021)", "setting": "[3]; [5]", "value": 46.56}, {"measurement": "Log10 of Rel to EFC (Feb2021)", "setting": "[3]; Feb2021", "value": 0.04454}, {"measurement": "Rel-to EFC (Feb-2021)", "setting": "[3]; Feb2021", "value": 1.108}, {"measurement": "Rel-to EFC", "setting": "[3]", "value": 1.108}, {"measurement": "n-fold to virus", "setting": "[3]; [6]", "value": 46.56}, {"measurement": "infectivity", "setting": "[3]; [7]", "value": "high"}, {"measurement": "infectivity", "setting": "[3]; [8]", "value": "high"}, {"measurement": "Log10 Inf. rel. to EF-C", "setting": "[3]", "value": 0.04454}, {"measurement": "Log Count Rate", "setting": "[4]; [9]", "value": 3.753}, {"measurement": "Log Count Rate", "setting": "[4]; Fig S8 panels B, D", "value": 3.753}, {"measurement": "Count Rate", "setting": "[4]; Fig S8 panels B, D", "value": 5658.77}, {"measurement": "Zeta Count Rate Category", "setting": "[4]", "value": 1}, {"measurement": "Zeta Count Rate / kcps", "setting": "[4]", "value": 5659, "unit": "kcps"}]}, {"substance": "HIHIQIC [CN12]", "values": [{"measurement": "TEM: 1= fibrils, 0= aggregates (micelle), 0.5 = aggregates and fibrils, -1 = nothing obersved, STD prep", "setting": "[1]", "value": 1}, {"measurement": "Zeta Pot. / mV", "setting": "[2]", "value": -3.687, "unit": "mV"}, {"measurement": "Zeta category ( +1 = if > 4 mV;-1 = if < -4 mV; 0 = -4mV to 4 mV)", "setting": "[2]", "value": "0 (0 = -4mV to 4 mV)"}, {"measurement": "Zeta-pot. / mV", "setting": "[2]", "value": -3.687, "unit": "mV"}, {"measurement": "Absolute Infectivity / RLU /s (Feb2021)", "setting": "[3]; Feb2021", "value": 4621, "unit": "RLU /s"}, {"measurement": "n-fold to virus (Feb2021)", "setting": "[3]; [5]", "value": 11.38}, {"measurement": "Log10 of Rel to EFC (Feb2021)", "setting": "[3]; Feb2021", "value": -0.5672}, {"measurement": "Rel-to EFC (Feb-2021)", "setting": "[3]; Feb2021", "value": 0.2709}, {"measurement": "Rel-to EFC", "setting": "[3]", "value": 0.2709}, {"measurement": "n-fold to virus", "setting": "[3]; [6]", "value": 11.38}, {"measurement": "infectivity", "setting": "[3]; [7]", "value": "medium"}, {"measurement": "Log10 Inf. rel. to EF-C", "setting": "[3]", "value": -0.5672}, {"measurement": "Log Count Rate", "setting": "[4]; [9]", "value": 2.416}, {"measurement": "Log Count Rate", "setting": "[4]; Fig S8 panels B, D", "value": 2.416}, {"measurement": "Count Rate", "setting": "[4]; Fig S8 panels B, D", "value": 260.57}, {"measurement": "Zeta Count Rate Category", "setting": "[4]", "value": 1}, {"measurement": "Zeta Count Rate / kcps", "setting": "[4]", "value": 260.6, "unit": "kcps"}]}, {"substance": "KIKIQINMWQRGD [VH17-II]", "values": [{"measurement": "TEM: 1= fibrils, 0= aggregates (micelle), 0.5 = aggregates and fibrils, -1 = nothing obersved, STD prep", "setting": "[1]", "value": 0}, {"measurement": "Zeta category ( +1 = if > 4 mV;-1 = if < -4 mV; 0 = -4mV to 4 mV)", "setting": "[2]", "value": "0 (0 = -4mV to 4 mV)"}, {"measurement": "Zeta Pot. / mV", "setting": "[2]; mean, Std in separate column", "value": 1.69, "unit": "mV"}, {"measurement": "Zeta-pot. / mV", "setting": "[2]", "value": 1.69, "unit": "mV"}, {"measurement": "n-fold to virus (Feb2021)", "setting": "[3]; [10]", "value": 0.5086}, {"measurement": "Log10 of Rel to EFC (Feb2021)", "setting": "[3]; Feb2021 run", "value": -1.917}, {"measurement": "Rel-to EFC (Feb-2021)", "setting": "[3]; Feb2021 run", "value": 0.0121}, {"measurement": "infectivity", "setting": "[3]; [7]", "value": "low"}, {"measurement": "infectivity", "setting": "[3]; [8]", "value": "low"}, {"measurement": "Log10 Inf. rel. to EF-C", "setting": "[3]", "value": -1.917}, {"measurement": "Zeta Count Rate / kcps", "setting": "[4]; [11]", "value": 2783, "unit": "kcps"}]}, {"substance": "KIKIKIKIWW [TM21]", "values": [{"measurement": "TEM: 1= fibrils, 0= aggregates (micelle), 0.5 = aggregates and fibrils, -1 = nothing obersved, STD prep", "setting": "[1]", "value": 0}, {"measurement": "Zeta category ( +1 = if > 4 mV;-1 = if < -4 mV; 0 = -4mV to 4 mV)", "setting": "[2]", "value": "1 (+1 = if > 4 mV)"}, {"measurement": "Zeta Pot. / mV", "setting": "[2]; mean, Std in separate column", "value": 15.4, "unit": "mV"}, {"measurement": "Zeta-pot. / mV", "setting": "[2]", "value": 15.4, "unit": "mV"}, {"measurement": "n-fold to virus (Feb2021)", "setting": "[3]; [10]", "value": 15.73}, {"measurement": "Log10 of Rel to EFC (Feb2021)", "setting": "[3]; Feb2021 run", "value": -0.4266}, {"measurement": "Rel-to EFC (Feb-2021)", "setting": "[3]; Feb2021 run", "value": 0.3744}, {"measurement": "infectivity", "setting": "[3]; [7]", "value": "medium"}, {"measurement": "Log10 Inf. rel. to EF-C", "setting": "[3]", "value": -0.4266}, {"measurement": "Zeta Count Rate / kcps", "setting": "[4]; [11]", "value": 9436, "unit": "kcps"}]}, {"substance": "GYVIIK [reference compound]", "values": [{"measurement": "Fibril / Fibril Formation", "setting": "[1]", "value": 0}, {"measurement": "Zeta pot. / mV", "setting": "[2]", "value": 9.9, "unit": "mV"}, {"measurement": "Zeta-Potential / mV", "setting": "[2]; mean, Figure 7B", "value": 9.88, "unit": "mV"}, {"measurement": "infectivity enhancement, in words", "setting": "[3]; fibril-forming peptides with positive zeta-potential, low count rate", "value": "do not enhance infectivity"}, {"measurement": "Log10 Infection Rel EF-C", "setting": "[3]; Figure 7B", "value": -0.99}, {"measurement": "Inf. rel. EF-C", "setting": "[3]", "value": 0.10}, {"measurement": "Count Rate / kcps", "setting": "[4]", "value": 30, "unit": "kcps"}]}, {"substance": "IIIQGK [reference compound]", "values": [{"measurement": "Fibril / Fibril Formation", "setting": "[1]", "value": 0}, {"measurement": "Zeta pot. / mV", "setting": "[2]", "value": -7.6, "unit": "mV"}, {"measurement": "Zeta-Potential / mV", "setting": "[2]; mean, Figure 7B", "value": -7.56, "unit": "mV"}, {"measurement": "Log10 Infection Rel EF-C", "setting": "[3]; Figure 7B", "value": -1.21}, {"measurement": "Inf. rel. EF-C", "setting": "[3]", "value": 0.06}, {"measurement": "Count Rate / kcps", "setting": "[4]", "value": 10, "unit": "kcps"}]}, {"substance": "KIWIWIW", "values": [{"measurement": "Fibril / Fibril Formation", "setting": "[1]", "value": 1}, {"measurement": "Zeta-Potential / mV", "setting": "[2]; mean, Figure 6C", "value": 11.33, "unit": "mV"}, {"measurement": "Log10 Infection Rel EF-C", "setting": "[3]; Figure 6C", "value": -0.2793}, {"measurement": "Inf. rel. EF-C", "setting": "[3]", "value": 0.53}, {"measurement": "Count Rate / kcps", "setting": "[4]", "value": 6186.6, "unit": "kcps"}, {"measurement": "Log10 Count Rate", "setting": "[4]; log10 of derived count rate of scattered light, Figure 6C", "value": 3.791}, {"measurement": "Log10 Count Rate", "setting": "[4]; logarithm of count rate in kcps", "value": 3.791}]}]}
